Here are results for four compounds from US20040253224A1, “Mammalian mucinase, its recombinant production, and its use in therapy or prophylaxis against diseases in which mucus is involved or infectious diseases” (priority 2001, published 2004).

The conditions of data set [1]: cited from earlier work.
Data set [2] is classed as physicochemical. The note with it: for enzyme precipitated at 0.5% (w/v) TCA: 0.5% (w/v) trichloroacetic acid. As to the method: Panel C: Precipitation by trichloroacetic acid (TCA). Purified recombinant human chitotriosidase and mouse AMCase were incubated with the indicated percentages of TCA. The amount of remaining enzyme activity after centrifugation is shown as a percentage of initial amounts.
(§1) The pH dependence of chitinase activity of AMCase was determined by incubating purified enzyme at a different pH (Mcllvaine buffer range 1.7-8.5) with 4-methylumbelliferyl substrates. Release of the fluorescent 4-metylumbelliferone was monitored fluorometrically (excitation […]).

For data set [3], the system named is Candida albicans strain CAi-4 spheroplasts. Nature of the data set: chitin content of cell wall of regenerating spheroplasts (Calcofluor white). In kind it is cell-based. Conditions: 3 μg per ml enzyme, 2 hours incubation. As to the method:
(§2) […]. […] Chitinase enzyme preparations were added in 3 μg/ml.
In addition, the mouse acidic chitinase and chitotriosidase were both able to digest chitin in the cell wall of regenerating spheroplasts of Candida albicans. The chitin content of the cell wall was determined with the Calcofluor white stain. When regenerating cells were incubated for 2 hours with 3 μg per ml recombinant chitotriosidase or 3 μg per ml recombinant mouse acidic chitinase, the chitin content was reduced by 27% and 33%, respectively.

Data set [4] is described as follows: chitin degradation products by FACE. The format is biochemical. The note with it: FACE analysis. How it is done: FIG. 2. Degradation products with colloidal chitin as substrate. The FACE technique (described in experimental procedures) was used to visualize the cleavage products of recombinant human chitotriosidase and recombinant mouse AMCase using colloidal chitin as substrate. Lane 1, no enzyme added. Lane 2, products formed after incubation with 50 kDa recombinant human chitotriosidase with chitin. Lane 3, products formed with recombinant mouse AMCase and chitin. Lane 4, human chitotriosidase incubated without substrate. Lane 5, mouse AMCase incubated without substrate. Marker lane is indicated with M (sugar polymers are indicated on the right-hand side).
as §2

Data set [5] in a line: pH dependence of chitinase activity (McIlvaine buffer, 4-methylumbelliferyl substrates). In kind it is biochemical. The note with it: McIlvaine buffer range 1.7-8.5. As to the method:
Panel A: pH activity profile of the different chitinases. The pH optima were determined by monitoring enzyme activity at the indicated pH in Mcllvaine buffer. Purified human recombinant chitotriosidase (closed lozenge), purified mouse AMCase (closed circle).
as §1

Data set [6] in a line: stability on pre-incubation at acidic or basic pH. In kind it is physicochemical. The note with it: 30 minutes pre-incubation in McIlvaine buffer. As to the method: Panel B: Effects of acidic pre-incubation. Purified recombinant human chitotriosidase and mouse AMCase were pre-incubated for 30 minutes at the indicated pH in Mcllvaine buffer prior to enzyme activity measurement at the assay pH (see experimental procedures). Activity prior to incubation at the indicated pH is defined as 100%.
as §1

The nature of data set [7]: expression of full-length cDNA in COS-1 cells, chitinolytic activity. In kind it is biochemical. Conditions: data not shown. From the text: These two sequences are most probably splice variants of the human acidic chitinase mRNA.
The test system of data set [8] is submaxillary gland mucins. Nature of the data set: viscosity and flow rate of mucin solution in vertical glass pipette. The format is biochemical. From the text:
The mammalian mucinase, endogenously present at mucosal surfaces in mammals, provides the solution for the above-mentioned problems concerning diseases in which mucus is involved. A mucinase of the invention is capable of cleaving mucus. In one embodiment, a specific mouse (nucleotide sequence SEQ ID NO:3 (see, Table III, below) and amino acid sequence SEQ ID NO:4 (see, Table IV, below)) and human mucinase (nucleotide sequence SEQ ID NO:2 (see, Table II, above) and amino acid sequence SEQ ID NO:1 (see, Table I, above) is provided, called AMCase. It has a catalytically active 39 kDa domain which is connected via a hinge region with a C-terminal mucin-binding domain. To show its mucus-degrading property, we have incubated a mixture of submaxillary gland mucins with recombinant 50 kDa AMCase. The effect of the incubation was examined by analysis with SDS-PAGE and silver staining. […] The flow rate of the mucin solution, as measured in a vertically positioned glass pipette, was increased with almost a factor of 2.

Data set [9] relates to hyphae of Candida albicans. Nature of the data set: incubation of hyphae with recombinant AMCase. The format is cell-based.
The test system of data set [10] is Bovine submaxillary gland mucin. Briefly: degradation of mucin, SDS-PAGE and silver staining. In kind it is biochemical. Conditions: 125 μg mucin, 500 ng enzyme, 0.05M NaAc pH 5.0, overnight 37° C. How it is done: FIG. 7. The effect of AMCase on glycoproteins was studied by evaluating the effect of mouse AMCase on mucin, a type of glycoproteins expressed on mucosal surfaces in the airways and gastrointestinal tract. Bovine submaxillary gland mucin (Sigma) 125 μg was dissolved in 40 μl 0.05M NaAc pH 5.0 in the presence or absence of 500 ng mouse AMCase. After overnight incubation at 37° C., the mucin was electrophorized on an SDS-PAGE gel 7.5%, followed by silver staining.
The effect of AMCase on glycoproteins was studied by evaluating the effect of AMCase on mucin, a glycoprotein expressed on mucosal surfaces in the airways and gastrointestinal tract. Bovine submaxillary gland mucin (Sigma) 125 μg was dissolved in 40 μl 0.05M NaAc pH 5.0 in the presence or absence of 500 ng mouse AMCase. After overnight incubation at 37° C., the mucin was electrophorized on an SDS-PAGE gel (7.5% homogeneous, followed by silver staining). As is shown in FIG. 7, the mucin was degraded by treatment with the AMCase.

Data set [11] can be described thus: specific activity of purified enzyme on 4MU-chitotrioside. The format is biochemical. Conditions: pH 5.2. As to the method: (§3) Chitin affinity chromatography was used to purify the enzyme. Detergent-free extracts of mouse tissues were prepared by homogenization in 10 volumes of potassium phosphate buffer pH 6.5, using an Ultra-turrax and centrifugation for 20 minutes at 15,000×g. The mouse intestine extract was adjusted to pH 5.0 by the addition of citric acid (0.2 M); NaCl was added to a final concentration of 2 M. A chitin column was prepared by mixing 10 grams swollen Sepharose G25 fine (Pharmacia, Uppsala, Sweden) with 300 mg of colloidal chitin (prepared as described by Shimahara et al. (Shimahara et al., 1988), followed by equilibration with phosphate-buffered saline (PBS) containing 2M NaCl. The extracts were applied onto the column with a flow speed of 0.4 ml/minute. After extensive washing, bound chitinase was eluted from the column with 8M urea, which was subsequently removed by dialysis. Protein concentrations were determined according to the method of Lowry et al. (Lowry et al 1951) using BSA as a standard. Fractions containing chitinase activity were subjected to SDS-PAGE and Western blotting as described (Renkema et al., 1995).
The specific activity of the purified enzyme was 3.9 nmol 4-methylumbelliferyl-chitotrioside hydrolyzed per mg per hour at pH 5.2, which is almost identical to that of human chitotriosidase.
as §2

A short description of data set [12]: resistance against proteases. In kind it is physicochemical.
The nature of data set [13]: binding to chitin particles. As to the method: as §3

On to `CC(=O)N[C@@H](CS)C(=O)O` [N-acetylcysteine], for which the “mucolytic activity in vitro” value in data set [1] (in vitro) is on record as “has mucolytic activity in vitro”. Besides, in [1] (in vivo), the “mucolytic activity in vivo” value was “has not been demonstrated convincingly in vivo”.

As to “chitotriosidase: human phagocyte chitinase, SEQ ID NO:10, used as comparator [reference compound]”, in data set [2], the “enzyme precipitated at 0.5% (w/v) TCA” value is 58%. For the same compound, the “enzyme precipitated at 2.5% (w/v) TCA” value in data set [2] (2.5% (w/v) trichloroacetic acid) was “all chitotriosidase precipitates”. Besides, in [3], the “chitin content of cell wall reduced by” value is 27%. Besides, the “cleavage products released from chitin” value in [4] is on record as “releases mainly chitobioside fragments”. Moreover, the “pH optimum (pronounced)” value in [5] is on record as “only a broad pH optimum”. For the same compound, the “effect of pre-incubation at low pH on activity” value in data set [6] was “completely inactivated”.

As for “human AMCase: human acidic mammalian chitinase/mucinase, amino acid sequence SEQ ID NO:1”, the “chitinolytic activity of expressed protein” value in data set [7] is “protein with chitinolytic activity”.

In the case of “mouse AMCase: acidic mammalian chitinase/mucinase of mouse, 50 kDa protein, amino acid sequence SEQ ID NO:4”, in data set [2], the “enzyme remaining unprecipitated at 2.5% (w/v) TCA” value amounted to 26%. In addition, the “enzyme precipitated at 0.5% (w/v) TCA” value in data set [2] is “remains in solution”. The “chitin content of cell wall reduced by” value in data set [3] is recorded as 33%. Moreover, in data set [8], the “viscosity of the mucin solution after incubation” value is listed as “markedly reduced”. Besides, in data set [8] (vertically positioned glass pipette), the “increase of flow rate of the mucin solution” value was around 2 factor. The “effect on hyphae (fungistatic effect)” value in data set [9] is listed as “selective lysis of the growing tip”. For the same compound, in [4], the “cleavage products released from chitin” value was “releases mainly chitobioside fragments”. Also, the degradation of mucin result was “degraded substantially” in data set [10] and “remarkable reduction in size of the mucins” in [10] (listed as recombinant 50 kDa AMCase). The “specific activity of the purified enzyme” value in [11] was 3.9 nmol 4-methylumbelliferyl-chit; in data set [11] (listed as mouse acidic chitinase), 3.9 nmol 4-methylumbelliferyl-chitotrioside hydrolyzed per mg per hour. In data set [5], the “less pronounced pH optimum” value is 4.7 pH. Further, the “pH optimum (pronounced)” value in data set [5] amounted to 2.3 pH. In addition, the resistance against proteases result in data set [12] is recorded as “quite resistant against various proteases”. In addition, the “binding to chitin particles” value in data set [13] is “high affinity”.
